Measured values: patent US8048892B2, “Azaquinolone based compounds exhibiting prolyl hydroxylase inhibitory activity, compositions, and uses thereof” (Amgen Inc., priority 2006, dated 2011)

Molecular target: HIF PHD2 (Homo sapiens, UniProt Q9GZT9)
Test: PHD2 inhibition assay (TR-FRET, VCB-Eu detection of hydroxylated P564-HIF1α peptide)
Assay type: biochemical
Details: 2 nM PHD2, 100 nM P564-HIF1α peptide, 0.25 μM 2-oxoglutarate
Description: Inhibition of HIF PHD2 activity was quantified utilizing the TR-FRET technology. HIF PHD2 catalyzes a hydroxyl modification on the proline residue of the P564-HIF1α peptide substrate (Biotin-DLEMLAPYIPMDDDFQL (SEQ ID NO: 7)) resulting in recognition and binding of the europylated Von Hippel-Lindau protein (pVHL), elongin B and elongin C heterotrimeric (VCB-Eu) complex.
The PHD2 inhibition assay was executed by addition of freshly dissolved FeCl2 to 178.57 μM (100 μM final concentration) in PHD2 Reaction Buffer containing 30 mM MES, pH 6, 10 mM NaCl, 0.25% Brij-35, 0.01% BSA, and 1% DMSO. 28 μL of the iron solution and 2 μL of inhibitor compounds serially diluted in 100% DMSO (5% DMSO final) were added to black polypropylene 96-well microtiter plates. To that, 10 μL of 10 nM PHD2 (2 nM final) was added to all wells of the plate except for the 8 wells of column 12 (LO control), and allowed to incubate at room temperature on the shaker for one hour. Column 6 was the HI control containing PHD2 enzyme and 5% DMSO vehicle, but no inhibitor compound. To initiate the PHD2 enzymatic reaction, 10 μL of a solution containing 500 nM P564-HIF1α peptide (100 nM final), 10 mM ascorbic acid (2 mM final), and 1.25 μM 2-oxoglutarate (α-ketoglutarate; 0.25 μM final) in PHD2 Reaction Buffer was added to all wells of the plate and allowed to incubate on the shaker at room temperature for one hour.
The reaction was terminated by addition of 25 μL TR-FRET Buffer (50 mM TRIS-HCl, pH 9, 100 mM NaCl, 0.05% BSA, and 0.5% Tween-20) containing 150 mM succinate (product inhibitor; 50 mM final), 75 nM streptavidin-APC (25 nM final), and 7.5 nM VCB-Eu (2.5 nM final). The TR-FRET detection reagents were placed on a shaker for 1 hour to reach binding equilibrium before reading on the Discovery platform (PerkinElmer). Europium is excited at 315 nm and phosphoresces at 615 nm with a large Stoke's shift. APC, in turn, emits at 655 nm upon excitation at 615 nm. The TR-FRET signal is measured as the ratio of the APC 655 nm signal divided by the internal europium reference 615 nm emission signal.
The POC (percentage of control) was determined by comparing the signal from hydroxylated peptide substrate in the enzyme reaction containing inhibitor compound with that from PHD2 enzyme with DMSO vehicle alone (HI control), and no enzyme (LO control). POC was calculated using the formula: % control (POC)=(cpd−average LO)/(average HI−average LO)*100. Data (consisting of POC and inhibitor concentration in μM) was fitted to a 4-parameter equation (y=A+((B−A)/(1+((x/C)^D))), where A is the minimum y (POC) value, B is the maximum y (POC), C is the x (cpd concentration) at the point of inflection and D is the slope factor) using a Levenburg-Marquardt non-linear regression algorithm.

HIF PHD2, sequence (Q9GZT9 whole entry): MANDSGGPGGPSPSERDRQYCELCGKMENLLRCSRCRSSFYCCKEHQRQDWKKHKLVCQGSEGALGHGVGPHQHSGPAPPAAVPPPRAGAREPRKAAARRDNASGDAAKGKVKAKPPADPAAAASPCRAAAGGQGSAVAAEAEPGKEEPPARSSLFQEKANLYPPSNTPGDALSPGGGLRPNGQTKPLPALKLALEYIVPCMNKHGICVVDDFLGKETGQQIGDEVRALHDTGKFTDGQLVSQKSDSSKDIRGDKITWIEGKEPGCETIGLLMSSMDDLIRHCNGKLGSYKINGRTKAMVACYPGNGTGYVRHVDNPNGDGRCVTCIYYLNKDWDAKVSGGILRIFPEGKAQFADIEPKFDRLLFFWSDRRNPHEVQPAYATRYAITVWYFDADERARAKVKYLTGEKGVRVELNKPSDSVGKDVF

`Cn1c(=O)c(C(=O)NCC(=O)O)c(O)c2cc(C3CCCCO3)cnc21` (racemic) [Example 68, (R,S)-2-(4-Hydroxy-1-methyl-2-oxo-6-(tetrahydro-2 H-pyran-2-yl)-1,2-dihydro-1,8-naphthyridine-3-carboxamido)acetic acid] and `Cn1c(=O)c(C(=O)NCC(=O)O)c(O)c2cc(C3CCCO3)c(C(F)(F)F)nc21` (racemic) [Example 99, (R,S) 2-(4-Hydroxy-1-methyl-2-oxo-6-(tetrahydrofuran-2-yl)-7-(trifluoromethyl)-1,2-dihydro-1,8-naphthyridine-3-carboxamido)acetic acid] cannot be ordered by IC50: < 50 nM for the first, < 50 nM for the second.

`Cn1c(=O)c(C(=O)NCC(=O)O)c(O)c2cc(C3CCOC3)c(C(F)(F)F)nc21` (racemic) [Example 100, (R,S) 2-(4-Hydroxy-1-methyl-2-oxo-6-(tetrahydrofuran-3-yl)-7-(trifluoromethyl)-1,2-dihydro-1,8-naphthyridine-3-carboxamido)acetic acid] and `Cn1c(=O)c(C(=O)NCC(=O)O)c(O)c2cc(C3CCCO3)c(C(F)(F)F)nc21` (single isomer, unassigned) [Example 101, (R)-2-(4-Hydroxy-1-methyl-2-oxo-6-(tetrahydrofuran-2-yl)-7-(trifluoromethyl)-1,2-dihydro-1,8-naphthyridine-3-carboxamido)acetic acid or (S)-2-(4-Hydroxy-1-methyl-2-oxo-6-(tetrahydrofuran-2-yl)-7-(trifluoromethyl)-1,2-dihydro-1,8-naphthyridine-3-carboxamido)acetic acid] cannot be ordered by IC50: < 50 nM for the first, < 50 nM for the second.

`Cn1c(=O)c(C(=O)NCC(=O)O)c(O)c2cc(C3CCCCO3)cnc21` (single isomer, unassigned) [Example 69, (R)-2-(4-hydroxy-1-methyl-2-oxo-6-(tetrahydro-2 H-pyran-2-yl)-1,2-dihydro-1,8-naphthyridine-3-carboxamido)acetic acid or (S)-2-(4-hydroxy-1-methyl-2-oxo-6-(tetrahydro-2 H-pyran-2-yl)-1,2-dihydro-1,8-naphthyridine-3-carboxamido)acetic acid] and `Cn1c(=O)c(C(=O)NCC(=O)O)c(O)c2cc(C3CCCO3)c(C(F)(F)F)nc21` (single isomer, unassigned) [Example 102, (R)-2-(4-Hydroxy-1-methyl-2-oxo-6-(tetrahydrofuran-2-yl)-7-(trifluoromethyl)-1,2-dihydro-1,8-naphthyridine-3-carboxamido)acetic acid or (S)-2-(4-Hydroxy-1-methyl-2-oxo-6-(tetrahydrofuran-2-yl)-7-(trifluoromethyl)-1,2-dihydro-1,8-naphthyridine-3-carboxamido)acetic acid] fall in the same range of IC50: 50 to 100 nM for the first, 50 to 100 nM for the second.

First: Cn1c(=O)c(C(=O)NCC(=O)O)c(O)c2cc(C3CCCCO3)cnc21 (single isomer, unassigned) [Example 70, (R)-2-(4-Hydroxy-1-methyl-2-oxo-6-(tetrahydro-2 H-pyran-2-yl)-1,2-dihydro-1,8-naphthyridine-3-carboxamido)acetic acid or (S)-2-(4-Hydroxy-1-methyl-2-oxo-6-(tetrahydro-2 H-pyran-2-yl)-1,2-dihydro-1,8-naphthyridine-3-carboxamido)acetic acid]
Second: Cn1c(=O)c(C(=O)NCC(=O)O)c(O)c2ncc(C3CCCC3)cc21 [Example 5, 2-(7-Cyclopentyl-4-hydroxy-1-methyl-2-oxo-1,2-dihydro-1,5-naphthyridine-3-carboxamido)acetic acid]
The IC50 of the first is higher: 50 to 100 nM for the first, < 50 nM for the second.

`Cn1c(=O)c(C(=O)NCC(=O)O)c(O)c2cc(C3CCOC3)c(C(F)(F)F)nc21` (single isomer, unassigned) [Example 103, (R)-2-(4-Hydroxy-1-methyl-2-oxo-6-(tetrahydrofuran-3-yl)-7-(trifluoromethyl)-1,2-dihydro-1,8-naphthyridine-3-carboxamido)acetic acid or (S)-2-(4-Hydroxy-1-methyl-2-oxo-6-(tetrahydrofuran-3-yl)-7-(trifluoromethyl)-1,2-dihydro-1,8-naphthyridine-3-carboxamido)acetic acid] and `Cn1c(=O)c(C(=O)NCC(=O)O)c(O)c2ccc(Br)nc21` [Example 11, 2-(7-Bromo-4-hydroxy-1-methyl-2-oxo-1,2-dihydro-1,8-naphthyridine-3-carboxamido)acetic acid] cannot be ordered by IC50: < 50 nM for the first, < 50 nM for the second.

First: Cn1c(=O)c(C(=O)NCC(=O)O)c(O)c2cc(C3CCOC3)c(C(F)(F)F)nc21 (single isomer, unassigned) [Example 104, (R)-2-(4-Hydroxy-1-methyl-2-oxo-6-(tetrahydrofuran-3-yl)-7-(trifluoromethyl)-1,2-dihydro-1,8-naphthyridine-3-carboxamido)acetic acid or (S)-2-(4-Hydroxy-1-methyl-2-oxo-6-(tetrahydrofuran-3-yl)-7-(trifluoromethyl)-1,2-dihydro-1,8-naphthyridine-3-carboxamido)acetic acid]
Second: Cn1c(=O)c(C(=O)NCC(=O)O)c(O)c2ccc(C3=CCCCC3)nc21 [Example 13, 2-(7-Cyclohexenyl-4-hydroxy-1-methyl-2-oxo-1,2-dihydro-1,8-naphthyridine-3-carboxamido)acetic acid]
The IC50 of the first is higher: 50 to 100 nM for the first, < 50 nM for the second. The second is the more potent here.

`Cn1c(=O)c(C(=O)NCC(=O)O)c(O)c2ncc(Br)cc21` [Example 1, N-((7-Bromo-4-hydroxy-1-methyl-2-oxo-1,2-dihydro-1,5-naphthyridin-3-yl)carbonyl)glycine] and `Cn1c(=O)c(C(=O)NCC(=O)O)c(O)c2ncc(C#N)cc21` [Example 6, 2-(7-Cyano-4-hydroxy-1-methyl-2-oxo-1,2-dihydro-1,5-naphthyridine-3-carboxamido)acetic acid] cannot be ordered by IC50: < 50 nM for the first, < 50 nM for the second.

First: Cn1c(=O)c(C(=O)NCC(=O)O)c(O)c2ncc(-c3cccs3)cc21 [Example 2, 2-(4-Hydroxy-1-methyl-2-oxo-7-(thiophen-2-yl)-1,2-dihydro-1,5-naphthyridine-3-carboxamido)acetic acid]
Second: Cn1c(=O)c(C(=O)NCC(=O)O)c(O)c2ncc(-c3ccccc3)cc21 [Example 3, 2-(4-Hydroxy-1-methyl-2-oxo-7-phenyl-1,2-dihydro-1,5-naphthyridine-3-carboxamido)acetic acid]
The IC50 of the first is lower: < 50 nM for the first, 50 to 100 nM for the second. The first is the more potent here.

`Cn1c(=O)c(C(=O)NCC(=O)O)c(O)c2ncc(C3=CCCC3)cc21` [Example 4, 2-(7-Cyclopentenyl-4-hydroxy-1-methyl-2-oxo-1,2-dihydro-1,5-naphthyridine-3-carboxamido)acetic acid] and `C#Cc1cnc2c(O)c(C(=O)NCC(=O)O)c(=O)n(C)c2c1` [Example 7, 2-(7-Ethynyl-4-hydroxy-1-methyl-2-oxo-1,2-dihydro-1,5-naphthyridine-3-carboxamido)acetic acid] cannot be ordered by IC50: < 50 nM for the first, < 50 nM for the second.

First: CC#Cc1cnc2c(O)c(C(=O)NCC(=O)O)c(=O)n(C)c2c1 [Example 8, 2-(4-Hydroxy-1-methyl-2-oxo-7-(prop-1-ynyl)-1,2-dihydro-1,5-naphthyridine-3-carboxamido)acetic acid]
Second: CC(C)C#Cc1cnc2c(O)c(C(=O)NCC(=O)O)c(=O)n(C)c2c1 [Example 9, 2-(4-Hydroxy-1-methyl-7-(3-methylbut-1-ynyl)-2-oxo-1,2-dihydro-1,5-naphthyridine-3-carboxamido)acetic acid]
The IC50 of the first is higher: 50 to 100 nM for the first, < 50 nM for the second.

`COCC#Cc1cnc2c(O)c(C(=O)NCC(=O)O)c(=O)n(C)c2c1` [Example 10, 2-(4-Hydroxy-7-(3-methoxyprop-1-ynyl)-1-methyl-2-oxo-1,2-dihydro-1,5-naphthyridine-3-carboxamido)acetic acid] and `Cn1c(=O)c(C(=O)NCC(=O)O)c(O)c2ccc(-c3cccs3)nc21` [Example 14, N-((4-Hydroxy-1-methyl-2-oxo-7-(2-thienyl)-1,2-dihydro-1,8-naphthyridin-3-yl)carbonyl)glycine] cannot be ordered by IC50: < 50 nM for the first, < 50 nM for the second.

`Cn1c(=O)c(C(=O)NCC(=O)O)c(O)c2ccc(-c3ccccc3)nc21` [Example 12, 2-(4-Hydroxy-1-methyl-2-oxo-7-phenyl-1,2-dihydro-1,8-naphthyridine-3-carboxamido)acetic acid] was tested, and the IC50 was < 50 nM.
